From patent US20120225909A1, “INDAZOLE ANALOG” (priority 2009, published 2012)
pEC50: −log10 of the molar value. Like-named read-outs stand apart in the source and are kept apart here.

Columns and labels:
Format in all cases: cell-based
[1] = biological target: T1, human β3-adrenergic receptor (Homo sapiens, UniProt P13945); test: Test Case 1-B: human β3-adrenergic receptor agonist activity (cAMP-Screen, 96-well)
T1 construct: A full-length human β3 gene is obtained from a human genomic library (made by Clontech) using this as the probe; expressed in transfected cells; host or cells: CHO (Chinese hamster ovary) cells, pcDNA3
T1 sequence (P13945 whole entry): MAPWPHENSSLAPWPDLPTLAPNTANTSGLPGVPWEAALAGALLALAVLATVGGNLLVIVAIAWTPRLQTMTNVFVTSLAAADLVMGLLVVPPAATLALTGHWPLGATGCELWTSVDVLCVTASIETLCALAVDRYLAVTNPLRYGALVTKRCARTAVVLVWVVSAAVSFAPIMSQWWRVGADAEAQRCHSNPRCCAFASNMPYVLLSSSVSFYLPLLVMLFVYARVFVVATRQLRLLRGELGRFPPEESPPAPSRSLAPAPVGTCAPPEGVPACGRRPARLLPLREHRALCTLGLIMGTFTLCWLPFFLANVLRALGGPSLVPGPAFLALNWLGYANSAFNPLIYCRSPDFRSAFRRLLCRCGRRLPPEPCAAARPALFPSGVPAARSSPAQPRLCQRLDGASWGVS
Experimental: Measurement of Human β3-Adrenergic Receptor Agonist Activity
The human β3-adrenergic receptor agonist activity is measured using CHO (Chinese hamster ovary) cells transfected by a human β3 gene inserted in pcDNA3 (Invitrogen). […] A full-length human β3 gene is obtained from a human genomic library (made by Clontech) using this as the probe. These cells are cultured in Ham's F-12 medium containing 10% fetal calf serum and 400 μg/mL genectin (Invitrogen). These cells are sown in 96-well plates to make 2×10^4 cells/well. After culturing for approximately 20 hours, they are allowed to stand for 15 minutes in 80 μL of serum-free Ham's F-12 medium. After first dissolving the test compound by DMSO, it is serially diluted by Ham's F-12 containing 100 mmol/L HEPES and 1 mmol/L isobutylmethylxanthine, and 20 μL is added to the cells. After culturing for 30 minutes, the medium is removed, and 0.1 mL of the assay/lysis buffer contained in the cAMP-Screen kit (made by Applied Bioscience) is added and incubated for 30 minutes at 37° C. The cAMP in this cell lysate is assayed by the above cAMP-Screen kit.

[2] = biological target: T2, human β1-adrenergic receptor (Homo sapiens, UniProt P08588); test: Test Case 2-B: human β1-adrenergic receptor agonist activity; details: for Emax: read-out: β1 receptor I.A.; for β1 receptor I.A.: Test Case 2-B, maximum response of isoproterenol = 100%
T2 construct: expressed in transfected cells; host or cells: CHO (Chinese hamster ovary) cells, pcDNA3
T2 sequence (P08588 whole entry): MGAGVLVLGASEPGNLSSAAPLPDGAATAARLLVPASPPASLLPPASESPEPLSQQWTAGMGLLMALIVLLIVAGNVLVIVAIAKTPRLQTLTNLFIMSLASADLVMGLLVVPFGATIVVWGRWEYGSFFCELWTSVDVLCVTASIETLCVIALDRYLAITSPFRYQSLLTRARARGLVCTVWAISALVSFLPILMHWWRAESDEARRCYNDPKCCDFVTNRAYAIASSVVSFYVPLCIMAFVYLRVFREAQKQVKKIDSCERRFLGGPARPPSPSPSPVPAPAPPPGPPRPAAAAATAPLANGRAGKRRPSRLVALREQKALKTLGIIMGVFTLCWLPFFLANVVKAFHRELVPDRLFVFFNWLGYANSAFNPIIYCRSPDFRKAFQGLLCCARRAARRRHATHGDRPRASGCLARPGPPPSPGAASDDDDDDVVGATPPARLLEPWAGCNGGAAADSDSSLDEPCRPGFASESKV
Experimental: Measurement of Human β1-Adrenergic Receptor Agonist Activity
The human β1-adrenergic receptor agonist activity is measured by the same method as in Test Case 1-B using CHO (Chinese hamster ovary) cells transfected by a human β1 gene inserted in pcDNA3 (Invitrogen).

[3] = biological target: T3, human β2-adrenergic receptor (Homo sapiens, UniProt P07550); test: Test Case 3-B: human β2-adrenergic receptor agonist activity; details: for Emax: read-out: β2 receptor I.A.; for β2 receptor I.A.: Test Case 3-B, maximum response of isoproterenol = 100%
T3 construct: expressed in transfected cells; host or cells: CHO (Chinese hamster ovary) cells, pcDNA3
T3 sequence (P07550 whole entry): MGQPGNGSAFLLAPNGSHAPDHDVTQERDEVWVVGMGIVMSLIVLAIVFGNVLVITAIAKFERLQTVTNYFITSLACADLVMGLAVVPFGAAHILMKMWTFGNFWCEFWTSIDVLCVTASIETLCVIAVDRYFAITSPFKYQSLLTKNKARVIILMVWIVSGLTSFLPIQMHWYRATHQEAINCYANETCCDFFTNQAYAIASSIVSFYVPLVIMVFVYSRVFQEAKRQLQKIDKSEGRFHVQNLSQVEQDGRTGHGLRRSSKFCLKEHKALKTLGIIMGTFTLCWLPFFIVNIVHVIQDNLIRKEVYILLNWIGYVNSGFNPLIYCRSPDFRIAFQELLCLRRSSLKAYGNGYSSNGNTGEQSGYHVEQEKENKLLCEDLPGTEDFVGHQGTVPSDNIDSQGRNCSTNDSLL
Experimental: Measurement of Human β2-Adrenergic Receptor Agonist Activity
The human β2-adrenergic receptor agonist activity is measured by the same method as in Test Case 1-B using CHO (Chinese hamster ovary) cells transfected by a human β2 gene inserted in pcDNA3 (Invitrogen).

[4] = biological target: T4, human α1A-adrenergic receptor (Homo sapiens, UniProt P35348); test: Test Case 4-A: human α1A-adrenergic receptor agonist activity (HEK293, Ca flux, Fura-2); set-up: expressed in transfected cells; host or cells: HEK293 cells, pcDNA3.1
T4 sequence (P35348 1-466): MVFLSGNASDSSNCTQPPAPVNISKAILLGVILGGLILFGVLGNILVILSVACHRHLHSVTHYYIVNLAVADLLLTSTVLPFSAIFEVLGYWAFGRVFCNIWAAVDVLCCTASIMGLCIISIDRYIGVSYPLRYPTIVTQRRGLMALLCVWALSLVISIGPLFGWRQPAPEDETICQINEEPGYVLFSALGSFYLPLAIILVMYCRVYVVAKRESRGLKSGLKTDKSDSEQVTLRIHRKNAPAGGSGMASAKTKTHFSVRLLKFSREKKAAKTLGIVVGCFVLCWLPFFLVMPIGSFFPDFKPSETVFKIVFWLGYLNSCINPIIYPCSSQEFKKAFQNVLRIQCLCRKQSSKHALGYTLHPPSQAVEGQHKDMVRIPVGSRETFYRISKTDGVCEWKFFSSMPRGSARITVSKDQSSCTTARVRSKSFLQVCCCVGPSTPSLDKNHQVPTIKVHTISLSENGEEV
Experimental: (§1) Measurement of Human α1A-Adrenergic Receptor Agonist Activity
The human α1A-adrenergic receptor agonist activity is measured using HEK293 cells transfected by a human α1A gene inserted in pcDNA3.1 (Invitrogen). […] After loading for 30 minutes in a CO2 incubator, the excess Fura-2AM is removed by washing twice with assay buffer. After preparing the centrifuged cells to make 5×10^6 cells/mL by assay buffer, 80 μL/well is dispensed into 96-well UV plates (made by Corning) to make cell plates. Sample plates with the test compound diluted 10-fold by assay buffer from 10^−5 to 10^−12 M and cell plates are set in an FDSS4000 (made by Hamamatsu Photonics). After preincubating for 180 seconds, measurement of fluorescence intensity (excitation wavelength 340 nm, 380 nm, measurement wavelength 500 nm) is begun at 2-second intervals. After approximately 30 seconds of measurement, 20 μL of test sample from a sample plate is added to the cell plate, and measurement is continued for another 270 seconds. The Ca flux caused by the test compound is calculated taking the difference in the maximum value of the fluorescence intensity ratio at 340 nm and 380 nm after adding the test compound and the fluorescence intensity ratio before adding the test compound as the peak height.

[5] = biological target: T4, human α1A-adrenergic receptor; test: Test Case 4-B: human α1A-adrenergic receptor agonist activity (Cerep cellular functional GPCR, alpha 1A); set-up: expressed in transfected cells; details: concentration 10 μM; for α1 receptor % of Control Agonist Response, Control; Epinephrine: epinephrine = 100%
Excerpt: as §1
The human α1A-adrenergic receptor agonist activity] can be measured by […] Functional GPCR·Gs, alpha 1A (Ref. 722-36a) listed on p. 52 of the Cerep 2008 CATALOG IN VITRO PHARMACOLOGY & ADME-TOX.

[6] = 0.5 h; read-out: β3 receptor I.A.
[7] = HEK293; read-out: α1A receptor I.A.
[8] = Test Case 1-B; maximum response of isoproterenol = 100%
[9] = Test Case 4-A; maximum response of norepinephrine = 100%; Table 4

Emax [1, 6] [%] | Emax [4, 7] [%] | SMILES | pEC50 ([1]; Test Case 1-B; CHO cells, cAMP) | also measured
– | – | COc1cccc(S(=O)(=O)Nc2cccc([C@@H](O)CNCCOc3ccc4c(OC)n[nH]c4c3)c2)c1 [ex43, (R)-N-(3-(1-hydroxy-2-(2-(3-methoxyindazol-6-yloxy)ethylamino)ethyl)phenyl)-3-methoxybenzene-sulfonamide] | 7.82 | β3 receptor I.A. [1, 8]: 65%; β1 receptor I.A. [2]: −2%; β2 receptor I.A. [3]: −5%; α1A receptor I.A. [4, 9]: 0%
– | – | COc1n[nH]c2cc(OCCNC[C@H](O)c3cccc(NS(=O)(=O)C4CC4)c3)ccc12 [ex47, (R)-N-(3-(1-hydroxy-2-(2-(3-methoxyindazol-6-yloxy)-ethylamino)ethyl)phenyl)cyclo-propanesulfonamide] | 7.39 | β3 receptor I.A. [1, 8]: 72%; β1 receptor I.A. [2]: 3%; β2 receptor I.A. [3]: 16%; pEC50 ([4]; Test Case 4-A; HEK293 cells, Ca flux; Table 4): 5.91; α1A receptor I.A. [4, 9]: 28%
59 | 0 | CCc1n[nH]c2cc(OCCNC[C@H](O)c3cccc(NS(=O)(=O)c4cccs4)c3)ccc12 [ex122, (R)-N-(3-(2-(2-(3-ethylindazol-6-yloxy)ethylamino)-1-hydroxyethyl)phenyl) thiophene-2-sulfonamide] | 9.04 | –
47 | 0 | CCc1n[nH]c2cc(OCCNC[C@H](O)c3cccc(NS(=O)(=O)c4cccc(Cl)c4)c3)ccc12 [ex119, (R)-3-chloro-N-(3-(2-(2-(3-ethylindazol-6-yloxy)-ethylamino)-1-hydroxyethyl)-phenyl) benzenesulfonamide] | 7.64 | –
91 | 1 | O=S(=O)(Nc1cccc([C@@H](O)CNCCOc2ccc3c(C(F)(F)F)n[nH]c3c2)c1)c1ccccc1F [ex189, (R)-2-fluoro-N-(3-(1-hydroxy-2-(2-(3-(trifluoromethyl)-indazol-6-yloxy)ethylamino)ethyl)phenyl)benzene-sulfonamide] | 7.07 | –
– | – | Cc1n[nH]c2cc(OCCNC[C@H](O)c3cccc(NS(=O)(=O)C4CCCC4)c3)ccc12 [ex237, (R)—N-(3-(1-hydroxy-2-(2-(3-methylindazol-6-yloxy)ethylamino)ethyl)phenyl)cyclopentanesulfonamide] | 6.53 | Emax ([1]; 0.5 h, read-out: β3 receptor I.A.): 58%; Emax ([4]; HEK293, read-out: α1A receptor I.A.): 0%
62 | 0 | Cc1n[nH]c2cc(OCCNC[C@H](O)c3cccc(NS(=O)(=O)c4ccc(Cl)cc4)c3)ccc12 [ex52, (R)-4-chloro-N-(3-(1-hydroxy-2-(2-(3-methylindazol-6-yloxy)ethylamino)ethyl)phenyl) benzenesulfonamide] | 6.61 | –
– | – | O=S(=O)(Nc1cccc([C@@H](O)CNCCOc2ccc3c(OC(F)F)n[nH]c3c2)c1)c1ccccn1 [ex117, (R)-N-(3-(2-(2-(3-(difluoromethoxy)-indazol-6-yloxy)ethylamino)-1-hydroxyethyl)phenyl)pyridine-2-sulfonamide] | – | β3 receptor I.A. [1, 8]: 54%; α1A receptor I.A. [4, 9]: 0%
73 | 9 | O=S(=O)(Nc1cccc([C@@H](O)CNCCOc2ccc3c(C4CCC4)n[nH]c3c2)c1)C1CCC1 [ex233, (R)-N-(3-(2-(2-(3- ?] | 8.00 | –
18 | 0 | Cc1n[nH]c2cc(OCCNC[C@H](O)c3cccc(NS(=O)(=O)c4cn(C)cn4)c3)ccc12 [ex50, (R)-N-(3-(1-hydroxy-2-(2-(3-methylindazol-6-yloxy)ethylamino)ethyl)phenyl)-1-methylimidazole-4-sulfonamide] | – | –
– | 100 | NC[C@H](O)c1ccc(O)c(O)c1 [Norepinephrine, reference compound] | – | α1 receptor % of Control Agonist Response, Control; Epinephrine [5]: 116%; α1 receptor % of Control Agonist Response, Control; Norepinephrine ([5]; norepinephrine = 100%): 100%; α1A receptor I.A. [4, 9]: 100%
48 | 0 | Cc1n[nH]c2cc(OCCNC[C@H](O)c3cccc(NS(=O)(=O)c4ccc(N)cc4)c3)ccc12 [ex54, (R)-4-amino-N-(3-(1-hydroxy-2-(2-(3-methylindazol-6-yloxy)ethylamino)ethyl)phenyl) benzenesulfonamide] | 6.90 | –
– | – | CNC[C@H](O)c1ccc(O)c(O)c1 [Epinephrine, epinephrine, reference compound] | – | α1 receptor % of Control Agonist Response, Control; Epinephrine [5]: 100%
48 | 29 | Cc1n[nH]c2cc(OCCNC[C@H](O)c3cccc(NS(=O)(=O)CC(F)(F)F)c3)ccc12 [ex48, (R)-2,2,2-trifluoro-N-(3-(1-hydroxy-2-(2-(3-methylindazol-6-yloxy)ethylamino)ethyl)phenyl) ? sulfonamide] | 7.57 | –

SMILES | Emax [1, 6] [%] | Emax [4, 7] [%] | pEC50 ([1]; Test Case 1-B; CHO cells, cAMP) | also measured
CNc1cccc(S(=O)(=O)Nc2cccc([C@@H](O)CNCCOc3ccc4c(C)n[nH]c4c3)c2)c1 [ex239, (R)—N-(3-(1-hydroxy-2-(2-(3-methylindazol-6-yloxy)ethylamino)ethyl)phenyl)-3-(methylamino)benzenesulfonamide] | 108 | 0 | 7.80 | Emax [2]: 15%; Emax [3]: 2%
COc1n[nH]c2cc(OCCNC[C@H](O)c3cccc(NS(=O)(=O)c4cccnc4)c3)ccc12 [ex12, (R)-N-(3-(1-hydroxy-2-(2-(3-methoxyindazol-6-yloxy)ethylamino)ethyl)phenyl)pyridine-3-sulfonamide] | 52 | 0 | 7.51 | Emax [2]: 5%; Emax [3]: 5%
COc1n[nH]c2cc(OCCNC[C@H](O)c3cccc(NS(=O)(=O)c4cccc(N)c4)c3)ccc12 [ex1, (R)-3-amino-N-(3-(1-hydroxy-2-(2-(3-methoxyindazol-6-yloxy)ethylamino)ethyl)phenyl)benzenesulfonamide] | 110 | 0 | 9.28 | Emax [2]: 6%; Emax [3]: 1%
CCc1n[nH]c2cc(OCCNC[C@H](O)c3cccc(NS(=O)(=O)c4cccc(N)c4)c3)ccc12 [ex118, (R)-3-amino-N-(3-(2-(2-(3-ethylindazol-6-yloxy)-ethylamino)-1-hydroxyethyl)-phenyl) benzenesulfonamide] | 77 | 0 | 9.60 | Emax [2]: 13%; Emax [3]: -1%
Nc1cccc(S(=O)(=O)Nc2cccc([C@@H](O)CNCCOc3ccc4c(OC(F)F)n[nH]c4c3)c2)c1 [ex104] | 116 | 0 | 9.38 | Emax [2]: 8%; Emax [3]: 4%
